Assay results published in PMC6930660, “Synthesis and Comparative Structure–Activity Study of Carbohydrate-Based Phenolic Compounds as α-Glucosidase Inhibitors and Antioxidants” (Molecules, 2019).
Where “and” joins values, the source holds several entries; their conditions need not be identical. Equal values may be shown once.

Assays:
[1] = DPPH radical scavenging assay (antioxidant activity); conditions: for EC50: MES-NaOH buffer pH 6.0, 15 min in the dark; for Antioxidant Trolox-eq (TE): trolox-equivalent (mol-trolox/mol-sample) = slope of sample / slope of trolox
Method: The antioxidant activity was assessed by employing the 2,2-diphenyl-1-picrylhydrazyl (DPPH) radical scavenging assay, according to the previously published method. In total, 100 μL of each sample (1000–10 μg/mL in 50%EtOH/ H2O ) or trolox (160–0 μM in 50% EtOH/ H2O ), and 50 μL of 2-(N-morpholino)ethanesulfonic acid (MES)-NaOH buffer (200 mM, pH = 6.0), and 50 μL of an 800 μM DPPH diluted in 99.5% EtOH were mixed in 96-well plates. Following shaking the microplate for 15 min in the dark, the absorbance was recorded at 520 nm using a microplate reader (Bio-Rad, Model 680). Effective percentages (%) were calculated as follows: Effective percentages (%) = 1−As/Ab ×100 where As is the absorbance of the sample and Ab is the absorbance of the blank (without samples, 50% EtOH/ H2O solution was used instead).
The trolox-equivalent (sample-mol/trolox-mol) was calculated as follows: Trolox−equivalent (mol−trolox/mol−sample) = Ss/St where Ss is the slope of the sample and St is the slope of trolox.

rat α-glucosidase = test: α-glucosidase inhibitory activity assay (FUJIFILM kit, maltose substrate, glucose measured by mutarotase-GOD method); assay type: biochemical; conditions: for IC50: rat α-glucosidase, 18.5 mM maltose, maleic anhydride buffer pH 6.0, 37 °C, 30 min, mean ± S.D. of n = 2; for α-glucosidase inhibitory activity, fold higher than acertannin (37): relative to acertannin (37)
Method: The α-glucosidase inhibitory activity of all samples was assayed utilizing a commercially available FUJIFILM α-glucosidase inhibitory activity assay kit. In total, 25 μL of each sample (25–2000 μg/mL in H2O ) or acarbose (0.5–8 μg/mL in H2O ), 50 μL of 18.5 mM maltose diluted in maleic anhydride buffer (100 mM, pH = 6.0), and 25 μL of the rat α-glucosidase solution were incubated in a micro-tube at 37 °C for 30 min. Subsequently, 400 μL of purified water was added to the solution and the reaction mixture was boiled for 3 min to deactivate α-glucosidase. The generated glucose was measured by LabAssay™ glucose (mutarotase-GOD method). In total, 100 μL of the reaction solution and 150 μL of the coloring solution were incubated in 96-well plates at 37 °C for 10 min, and the absorbance was recorded at 505 nm using a microplate reader (Bio-Rad, Model 680). The inhibition percentage was calculated using the following Equation: Inhibition percentage (%) = 1−As−Ab/Ac ×100 where As is the absorbance of the analyzed sample, Ab is the absorbance of the blank (immediate deactivation), and Ac is the absorbance of the control ([…]). Acarbose was used as the positive control.

Compound	EC50 ([1]; mean ± S.D. of n = 3) [µM]	Antioxidant Trolox-eq (TE) ([1]; mean ± S.D. of n = 3)	IC50 (rat α-glucosidase) [µM]	α-glucosidase inhibitory activity, fold higher than acertannin (37) (rat α-glucosidase)	α-glucosidase inhibitory activity relative to gallic acid (rat α-glucosidase; relative to gallic acid)	antioxidant activity (in words) [1]	Antioxidant Trolox-eq (TE) ([1]; mean ± S.D. of n = 3, listed as methyl 3,4-dihydroxybenzoate)
2,3,4,6-tetrakis-O-(3′,4′,5′-Trihydroxybenzoyl)-D-glucitol [Compound 54]	6.61 ± 0.68	6.77 ± 0.63	2.56 ± 0.1	more than 13 fold	–	–	–
C[C@H]1O[C@H](O[C@H]2[C@H](O)[C@@H](O)[C@@H](O[C@H]3[C@H](O)[C@@H](O)C(O)O[C@@H]3CO)O[C@@H]2CO)[C@H](O)[C@@H](O)[C@@H]1N[C@H]1C=C(CO)[C@@H](O)[C@H](O)[C@H]1O (stereo partly drawn) [Acarbose, reference compound]	–	–	0.11 ± 0.02	–	–	–	–
O=C(O[C@H]1CO[C@H](CO)[C@@H](O)[C@@H]1O)c1cc(O)c(O)c(O)c1 [Compound 31, 1,5-Anhydro-2-O-(3′,4′,5′-trihydroxybenzoyl)-D-glucitol]	19.4 ± 1.02	2.04 ± 0.08	95.1 ± 0.22	–	–	–	–
O=C(O[C@H]1[C@H](O)[C@@H](CO)OC[C@@H]1O)c1cc(O)c(O)c(O)c1 [Compound 32, 1,5-Anhydro-3-O-(3′,4′,5′-trihydroxybenzoyl)-D-glucitol]	20.5 ± 2.05	2.38 ± 0.24	138 ± 1.5	–	–	–	–
O=C(O[C@H]1[C@H](O)[C@@H](O)CO[C@@H]1CO)c1cc(O)c(O)c(O)c1 [Compound 33, 1,5-Anhydro-4-O-(3′,4′,5′-trihydroxybenzoyl)-D-glucitol]	20.8 ± 1.54	2.09 ± 0.19	143.9 ± 0.52	–	–	–	–
O=C(OC[C@H]1OC[C@H](O)[C@@H](O)[C@@H]1O)c1cc(O)c(O)c(O)c1 [Compound 34, 1,5-Anhydro-6-O-(3′,4′,5′-trihydroxybenzoyl)-D-glucitol]	22.9 ± 1.61	2.13 ± 0.12	127.1 ± 0.88	–	–	–	–
O=C(O[C@H]1[C@H](O)[C@@H](CO)OC[C@@H]1OC(=O)c1cc(O)c(O)c(O)c1)c1cc(O)c(O)c(O)c1 [Compound 35, 1,5-Anhydro-2,3-bis-O-(3′,4′,5′-trihydroxybenzoyl)-D-glucitol]	11.3 ± 0.98	4.29 ± 0.23	20.5 ± 0.5	–	three-times higher	–	–
O=C(O[C@H]1[C@H](O)[C@@H](OC(=O)c2cc(O)c(O)c(O)c2)CO[C@@H]1CO)c1cc(O)c(O)c(O)c1 [Compound 36, 1,5-Anhydro-2,4-bis-O-(3′,4′,5′-trihydroxybenzoyl)-D-glucitol]	14.3 ± 0.29	3.36 ± 0.13	48.3 ± 1.25	–	–	–	–
O=C(OC[C@H]1OC[C@H](OC(=O)c2cc(O)c(O)c(O)c2)[C@@H](O)[C@@H]1O)c1cc(O)c(O)c(O)c1 [Compound 37, 1,5-Anhydro-2,6-bis-O-(3′,4′,5′-trihydroxybenzoyl)-D-glucitol]	15.2 ± 0.53	3.32 ± 0.37	35.6 ± 2.58	–	–	–	–
O=C(O[C@H]1[C@H](OC(=O)c2cc(O)c(O)c(O)c2)[C@@H](CO)OC[C@@H]1O)c1cc(O)c(O)c(O)c1 [Compound 38, 1,5-Anhydro-3,4-bis-O-(3′,4′,5′-trihydroxybenzoyl)-D-glucitol]	14.8 ± 0.56	3.55 ± 0.42	91.4 ± 6.56	–	–	–	–
O=C(OC[C@H]1OC[C@H](O)[C@@H](OC(=O)c2cc(O)c(O)c(O)c2)[C@@H]1O)c1cc(O)c(O)c(O)c1 [Compound 39, 1,5-Anhydro-3,6-bis-O-(3′,4′,5′-trihydroxybenzoyl)-D-glucitol]	11.9 ± 0.71	3.67 ± 0.19	55 ± 8.84	–	–	–	–
O=C(OC[C@H]1OC[C@H](O)[C@@H](O)[C@@H]1OC(=O)c1cc(O)c(O)c(O)c1)c1cc(O)c(O)c(O)c1 [Compound 40, 1,5-Anhydro-4,6-bis-O-(3′,4′,5′-trihydroxybenzoyl)-D-glucitol]	13 ± 1.12	3.78 ± 0.33	26.6 ± 2.37	–	–	–	–
O=C(O[C@H]1[C@H](OC(=O)c2cc(O)c(O)c(O)c2)[C@@H](CO)OC[C@@H]1OC(=O)c1cc(O)c(O)c(O)c1)c1cc(O)c(O)c(O)c1 [Compound 41, 1,5-Anhydro-2,3,4-tris-O-(3′,4′,5′-trihydroxybenzoyl)-D-glucitol]	7.94 ± 0.39	5.59 ± 0.26	6.72 ± 0.21	–	–	–	–
O=C(OC[C@H]1OC[C@H](OC(=O)c2cc(O)c(O)c(O)c2)[C@@H](OC(=O)c2cc(O)c(O)c(O)c2)[C@@H]1O)c1cc(O)c(O)c(O)c1 [Compound 42, 1,5-Anhydro-2,3,6-tris-O-(3′,4′,5′-trihydroxybenzoyl)-D-glucitol]	8.09 ± 0.41	5.75 ± 0.18	5.34 ± 0.55	–	–	–	–
O=C(OC[C@H]1OC[C@H](OC(=O)c2cc(O)c(O)c(O)c2)[C@@H](O)[C@@H]1OC(=O)c1cc(O)c(O)c(O)c1)c1cc(O)c(O)c(O)c1 [Compound 43, 1,5-Anhydro-2,4,6-tris-O-(3′,4′,5′-trihydroxybenzoyl)-D-glucitol]	10.3 ± 0.76	4.31 ± 0.35	9.34 ± 0.99	–	–	–	–
O=C(OC[C@H]1OC[C@H](O)[C@@H](OC(=O)c2cc(O)c(O)c(O)c2)[C@@H]1OC(=O)c1cc(O)c(O)c(O)c1)c1cc(O)c(O)c(O)c1 [Compound 44, 1,5-Anhydro-3,4,6-tris-O-(3′,4′,5′-trihydroxybenzoyl)-D-glucitol]	8.48 ± 0.21	5.36 ± 0.20	12.6 ± 0.61	–	–	–	–
O=C(OC[C@H]1OC[C@H](OC(=O)c2ccc(O)c(O)c2)[C@@H](OC(=O)c2ccc(O)c(O)c2)[C@@H]1OC(=O)c1ccc(O)c(O)c1)c1ccc(O)c(O)c1 [Compound 55, 1,5-Anhydro-2,3,4,6-tetrakis-O-(3′,4′-dihydroxybenzoyl)-D-glucitol]	6.99 ± 0.11	6.54 and 6.54 ± 0.15	3.28 ± 0.16	–	–	–	–
O=C(OC[C@H]1OC[C@H](OC(=O)c2cc(O)cc(O)c2)[C@@H](OC(=O)c2cc(O)cc(O)c2)[C@@H]1OC(=O)c1cc(O)cc(O)c1)c1cc(O)cc(O)c1 [Compound 56, 1,5-Anhydro-2,3,4,6-tetrakis-O-(3,5-dihydroxybenzoyl)-D-glucitol]	> 70	–	9.34 ± 0.02	–	–	no antioxidant activity was observed	–
O=C(OC[C@H]1OC(O)[C@H](OC(=O)c2cc(O)c(O)c(O)c2)[C@@H](OC(=O)c2cc(O)c(O)c(O)c2)[C@@H]1OC(=O)c1cc(O)c(O)c(O)c1)c1cc(O)c(O)c(O)c1 (stereo partly drawn) [Compound 61, 2,3,4,6-tetrakis-O-(3′,4′,5′-Trihydroxybenzoyl)-α,β-D-glucopyranose]	5.6 ± 0.28	8.33 ± 0.49	1.68 ± 0.21	more than 13 fold	–	–	–
O=C(O[C@H]1[C@@H]2OC(=O)c3cc(O)c(O)c(O)c3-c3c(cc(O)c(O)c3O)C(=O)OC[C@H]2OC[C@@H]1OC(=O)c1cc(O)c(O)c(O)c1)c1cc(O)c(O)c(O)c1 [Compound 67, 1,5-Anhydro-2,3-bis-O-(3′,4′,5′-trihydroxybenzoyl)-4,6-O-hexahydroxydiphenyl-D-glucitol]	6.79 ± 0.21	6.44 and 6.44 ± 0.24	3.22 ± 0.51	–	–	–	–
COC(=O)c1ccc(O)c(O)c1 [Methyl 3,4-dihydroxybenzoate, methyl 3,4-dihydroxybenzoate, reference compound]	21.1 ± 1.08	2.20 ± 0.05	> 300	–	–	–	2.20
Cc1c(C)c2c(c(C)c1O)CCC(C)(C(=O)O)O2 (stereo not drawn) [Trolox, reference compound]	49.4 ± 3.87	–	–	–	–	–	–
